According to patent EP4603105A1, “PHARMACEUTICAL COMPOSITION CONTAINING CYCLIC COMPOUND HAVING SELECTIVE KRAS INHIBITORY EFFECT AGAINST HRAS AND NRAS” (CHUGAI SEIYAKU KABUSHIKI KAISHA, priority 2022, dated 2024):
*1 amine or outer side, *2 acyl side, *3 side chain or, on linkers, in order; H or OH if unused. Where a SMILES comes first, the peptide text is derived from it. Bridges are numbered along the chain shown (N, C = ends). [ ]: non-standard residue; d: D form. The star is where a group is joined. hPhe(3,5-F2-4-CF3) = N[C@@H](CCc1cc(F)c(C(F)(F)F)c(F)c1)C(=O)O; hPhe(3-Cl-4-CF3) = N[C@@H](CCc1ccc(C(F)(F)F)c(Cl)c1)C(=O)O; NPrPhe(4-CF3) = CCCN[C@@H](Cc1ccc(C(F)(F)F)cc1)C(=O)O; NMeGly(cPent) = CN[C@H](C(=O)O)C1CCCC1; X7 = C[C@@](N[*:1])(C(=O)[*:2])C1CC1; Aze(3S-Me) = C[C@H]1CN[C@@H]1C(=O)O; NMeD = CN[C@@H](CC(=O)O)C(=O)O; NMeL = CN[C@@H](CC(C)C)C(=O)O; Morpholide = C1CN(*)CCO1; Ac5c = NC1(C(=O)O)CCCC1; Aze = O=C(O)[C@@H]1CCN1; Sar = CNCC(=O)O

Experiments:
[1] = biological target: GDP-bound KRAS wild-type protein (Homo sapiens, UniProt P01116); experiment: Binding to KRAS by surface plasmon resonance (SPR), dissociation constant KD
Sequence of GDP-bound KRAS wild-type protein (P01116 1-188 isoform P01116-2): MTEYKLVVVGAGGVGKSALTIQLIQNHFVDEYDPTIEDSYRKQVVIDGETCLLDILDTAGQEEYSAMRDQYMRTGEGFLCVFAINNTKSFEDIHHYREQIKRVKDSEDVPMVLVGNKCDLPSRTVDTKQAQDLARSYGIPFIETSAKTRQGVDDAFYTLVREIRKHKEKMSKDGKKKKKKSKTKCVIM
Outline: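 Measured at 30°C: SPR with GDP-loaded, E. coli-expressed biotin-Avi RAS captured (~100–300 RU), ascending 75 s compound injections, HBS pH 7.4 with GDP, MgCl2, 4% DMSO. KD from 1:1 fit.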

[2] = biological target: HRAS wild-type protein (Homo sapiens, UniProt P01112); experiment: Binding to HRAS by surface plasmon resonance (SPR), KD and KD ratio to KRAS
Sequence of HRAS wild-type protein (P01112 whole entry): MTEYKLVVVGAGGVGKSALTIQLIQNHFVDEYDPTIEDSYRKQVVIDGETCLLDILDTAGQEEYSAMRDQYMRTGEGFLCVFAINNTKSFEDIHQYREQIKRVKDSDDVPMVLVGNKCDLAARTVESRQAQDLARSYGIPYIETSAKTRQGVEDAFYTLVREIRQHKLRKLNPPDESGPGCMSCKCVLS
Outline: (§1)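 Biotinylated GDP-bound RAS was captured at about 100–300 RU. Running buffer: HBS pH 7.4, 10 mM MgCl2, 10 µM GDP, 1 mM DTT, 0.01% Tween 20, 4% DMSO.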

[3] = biological target: GDP-bound NRAS wild-type protein (Homo sapiens, UniProt P01111); experiment: Binding to NRAS by surface plasmon resonance (SPR), KD and KD ratio to KRAS
Sequence of GDP-bound NRAS wild-type protein (P01111 whole entry): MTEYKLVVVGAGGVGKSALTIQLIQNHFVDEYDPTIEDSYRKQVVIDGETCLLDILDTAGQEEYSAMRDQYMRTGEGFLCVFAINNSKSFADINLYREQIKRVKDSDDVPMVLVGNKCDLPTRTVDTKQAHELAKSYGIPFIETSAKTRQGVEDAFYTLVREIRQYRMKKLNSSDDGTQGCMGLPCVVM
Outline: as §1

[4] = tested on: human lung cancer strain NCI-H441; format: cell-based
Outline: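 Step one: dispense the test compound in serial DMSO dilutions. Step three: add the reagent and measure […].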

[5] = ratio of KD for HRAS wild-type protein to KD for KRAS
[6] = ratio of KD for GDP-bound NRAS wild-type protein to KD for KRAS
[7] = Single Cycle Kinetics, 1:1 binding model
[8] = ratio of the KD value with respect to HRAS wild-type protein to the KD value with respect to KRAS
[9] = ratio of the KD value with respect to GDP-bound NRAS wild-type protein to the KD value with respect to KRAS

CCCN1C(=O)CN(C)C(=O)[C@@H]2CCN2C(=O)[C@H]([C@@H](C)CC)NC(=O)[C@H](CC(C)C)N(C)C(=O)C[C@@H](C(=O)N2CCOCC2)N(C)C(=O)[C@H](C2CCCC2)N(C)C(=O)[C@](C)(C2CC2)NC(=O)[C@@H]2CCCN2C(=O)[C@H](CCc2cc(F)c(C(F)(F)F)c(F)c2)NC(=O)CN(C)C(=O)[C@@H]1Cc1ccc(C(F)(F)F)cc1 [PP0772] ([NMeL]I[Aze][Sar][NPrPhe(4-CF3)][Sar][hPhe(3,5-F2-4-CF3)]P[X7][NMeGly(cPent)][NMeD]-Morpholide; lactam N-11)
Kd ([1]; Single Cycle Kinetics): 4.3 nM
HRAS /KRAS [2, 5]: B (a compound having 3 or more and less than 10 is denoted as B)
NRAS /KRAS [3, 6]: B (a compound having 3 or more and less than 10 is denoted as B)
IC50 [4]: 434 nM

CCCN1C(=O)CN(C)C(=O)[C@@H]2[C@@H](C)CN2C(=O)[C@H]([C@@H](C)CC)NC(=O)[C@H](CC(C)C)N(C)C(=O)C[C@@H](C(=O)N2CCOCC2)N(C)C(=O)[C@H](C2CCCC2)N(C)C(=O)C2(CCCC2)NC(=O)[C@@H]2CCCN2C(=O)[C@H](CCc2ccc(C(F)(F)F)c(Cl)c2)NC(=O)CN(C)C(=O)[C@@H]1Cc1ccc(C(F)(F)F)cc1 [PP0258] ([NMeL]I[Aze(3S-Me)][Sar][NPrPhe(4-CF3)][Sar][hPhe(3-Cl-4-CF3)]P[Ac5c][NMeGly(cPent)][NMeD]-Morpholide; lactam N-11)
Kd ([1]; 1:1 binding model): 0.52 nM
HRAS /KRAS [2, 5]: C (A compound having a KD ratio of 0.1 or more and less than 3 is denoted as C)
NRAS /KRAS [3, 6]: B (a compound having 3 or more and less than 10 is denoted as B)
IC50 [4]: 11.3 nM

CCO[C@@H]1C[C@H]2C(=O)NC3(CCC3)C(=O)N(C)[C@@H](C3CCCC3)C(=O)N(C)[C@H](C(=O)N3CCOCC3)CC(=O)N(C)[C@@H](COCC(F)(F)F)C(=O)N[C@@H]([C@@H](C)CC)C(=O)N(C)CC(=O)N(C)[C@H]3CCCCCN(C3=O)[C@@H](Cc3ccc(C(F)(F)F)cc3)C(=O)N(C)CC(=O)N[C@@H](CCc3cc(F)c(C(F)(F)F)c(F)c3)C(=O)N2C1 [PP0853]
Kd ([1]; Single Cycle Kinetics): 0.67 nM
HRAS /KRAS [2, 5]: B (a compound having 3 or more and less than 10 is denoted as B)
NRAS /KRAS [3, 6]: B (a compound having 3 or more and less than 10 is denoted as B)
IC50 [4]: 24.3 nM

CCCN(C)C(=O)[C@@H]1CC(=O)N(C)[C@@H](C2CCC2)C(=O)N[C@@H]([C@@H](C)CC)C(=O)N(C)CC(=O)N(C)[C@H]2C/C=C\CCN(C2=O)[C@@H](Cc2ccc(C(F)(F)F)cc2)C(=O)N(C)CC(=O)N[C@@H](CCc2cc(F)c(C(F)(F)F)c(F)c2)C(=O)N2C[C@H](OCC)C[C@H]2C(=O)NC2(CCC2)C(=O)N(C)[C@@H](C2CCCC2)C(=O)N1C [PP1998]
Kd [1, 7]: 0.17 nM
HRAS /KRAS [2, 8]: B (a compound having 3 or more and less than 10 is denoted as B)
NRAS /KRAS [3, 9]: A (a compound having 10 or more and less than 20 is denoted as A)
IC50 [4]: 16.1 nM

CCO[C@@H]1C[C@H]2C(=O)NC3(CCC3)C(=O)N(C)[C@@H](C3CCCC3)C(=O)N(CCC3CCC3)[C@H](C(=O)N3CCOCC3)CC(=O)N(C)[C@@H](CC(C)C)C(=O)N[C@@H]([C@@H](C)CC)C(=O)N(C)CC(=O)N(C)[C@H]3CCCCCN(C3=O)[C@@H](Cc3ccc(C(F)(F)F)cc3)C(=O)N(C)CC(=O)N[C@@H](CCc3cc(F)c(C(F)(F)F)c(F)c3)C(=O)N2C1 [PP0640]
Kd [1, 7]: 20 nM
HRAS /KRAS [2, 8]: B (a compound having 3 or more and less than 10 is denoted as B)
NRAS /KRAS [3, 9]: B (a compound having 3 or more and less than 10 is denoted as B)
IC50 [4]: > 600 nM

CCO[C@@H]1C[C@H]2C(=O)NC3(CCC3)C(=O)N(C)[C@@H](C3CCCC3)C(=O)N(C)[C@H](C(=O)N(C)C)CC(=O)N(C)[C@@H](CCOC)C(=O)N[C@@H]([C@@H](C)CC)C(=O)N(C)CC(=O)N(C)[C@H]3CCCCCN(C3=O)[C@@H](Cc3ccc(C(F)(F)F)cc3)C(=O)N(C)CC(=O)N[C@@H](CCc3cc(F)c(C(F)(F)F)c(F)c3)C(=O)N2C1 [PP0675]
Kd [1, 7]: 0.22 nM
HRAS /KRAS [2, 8]: B (a compound having 3 or more and less than 10 is denoted as B)
NRAS /KRAS [3, 9]: B (a compound having 3 or more and less than 10 is denoted as B)
IC50 [4]: 25.5 nM

CCCO[C@@H]1C[C@H]2C(=O)N(C)C3(CC(C)(C)C3)C(=O)N(C)[C@@H](C(CC)CC)C(=O)N(C)[C@H](C(=O)N(C)C)CC(=O)N(C)[C@@H](COC)C(=O)N[C@@H]([C@@H](C)CC)C(=O)N(C)CC(=O)N(C)[C@H]3C/C=C\CCN(C3=O)[C@@H](Cc3ccc(C)cc3)C(=O)N(C)CC(=O)N[C@@H](CCc3ccc(Cl)c(Cl)c3)C(=O)N2C1 [PP2812]
Kd ([1]; 1:1 binding model): 0.56 nM
HRAS /KRAS [2, 5]: A (a compound having 10 or more and less than 20 is denoted as A)
NRAS /KRAS [3, 6]: AA (a compound having 20 or more is denoted as AA)
IC50 [4]: 41 nM

CCC[C@H]1C(=O)N[C@@H]([C@@H](C)CC)C(=O)N(C)CC(=O)N(C)[C@H]2C/C=C\CCN(C2=O)[C@@H](Cc2ccc(C)cc2)C(=O)N(C)CC(=O)N[C@@H](CCc2ccc(Cl)c(Cl)c2)C(=O)N2C[C@H](OCC)C[C@H]2C(=O)NC2(CC(C)(C)C2)C(=O)N(C)[C@@H](CC2CC2)C(=O)N(C)[C@H](C(=O)N(C)C)CC(=O)N1C [PP2799]
Kd ([1]; 1:1 binding model): 1.2 nM
HRAS /KRAS [2, 5]: A (a compound having 10 or more and less than 20 is denoted as A)
NRAS /KRAS [3, 6]: A (a compound having 10 or more and less than 20 is denoted as A)
IC50 [4]: 136 nM

CCC(CC)[C@H]1C(=O)N(C)[C@H](C(=O)N(C)C)CC(=O)N(C)[C@@H](COC)C(=O)N[C@@H]([C@@H](C)CC)C(=O)N(C)CC(=O)N(C)[C@H]2C/C=C\CCN(C2=O)[C@@H](Cc2ccc(C)cc2)C(=O)N(C)CC(=O)N[C@@H](CCc2cc(F)c(C(F)(F)F)c(F)c2)C(=O)N2CCCC[C@H]2C(=O)NC2(CC(C)(C)C2)C(=O)N1C [PP2922]
Kd ([1]; 1:1 binding model): 1.1 nM
HRAS /KRAS [2, 5]: A (a compound having 10 or more and less than 20 is denoted as A)
NRAS /KRAS [3, 6]: AA (a compound having 20 or more is denoted as AA)
IC50 [4]: 55.4 nM

CCCOC[C@H]1C(=O)N[C@@H]([C@@H](C)CC)C(=O)N(C)CC(=O)N(C)[C@H]2C/C=C\CCN(C2=O)[C@@H](Cc2ccc(C(F)(F)F)cc2)C(=O)N(C)CC(=O)N[C@@H](CCc2ccc(C(F)(F)F)c(OC)c2)C(=O)N2C[C@@H](C)C[C@H]2C(=O)NC2(CC(C)(C)C2)C(=O)N(C)[C@@H](C2CCCC2)C(=O)N(C)[C@H](C(=O)N(C)C)CC(=O)N1C [PP1997]
Kd [1, 7]: 0.098 nM
HRAS /KRAS [2, 8]: B (a compound having 3 or more and less than 10 is denoted as B)
NRAS /KRAS [3, 9]: A (a compound having 10 or more and less than 20 is denoted as A)
IC50 [4]: 14.2 nM

CCO[C@@H]1C[C@H]2C(=O)NC3(CC(C)(C)C3)C(=O)N(C)[C@@H](C3CCCC3)C(=O)N(C)[C@H](C(=O)N(C)C)CC(=O)N(C)[C@@H]([C@H](C)OC)C(=O)N[C@@H]([C@@H](C)CC)C(=O)N(C)CC(=O)N(C)[C@H]3C/C=C\CCN(C3=O)[C@@H](Cc3ccc(C)cc3)C(=O)N(C)CC(=O)N[C@@H](CCc3ccc(C(F)(F)F)c(Cl)c3)C(=O)N2C1 [PP3189]
Kd ([1]; 1:1 binding model): 0.12 nM
HRAS /KRAS [2, 5]: A (a compound having 10 or more and less than 20 is denoted as A)
NRAS /KRAS [3, 6]: A (a compound having 10 or more and less than 20 is denoted as A)
IC50 [4]: 18.5 nM

CC[C@H](C)[C@@H]1NC(=O)[C@H](CC)N(C)C(=O)C[C@@H](C(=O)N(C)C)N(C)C(=O)[C@H](C2CCCC2)N(C)C(=O)C2(CCCC2)N(C)C(=O)[C@@H]2C[C@@H](C)CN2C(=O)[C@H](CCc2cc(F)c(C(F)(F)F)c(F)c2)NC(=O)CN(C)C(=O)[C@H](Cc2ccc(C)cc2)N2CC/C=C\C[C@@H](C2=O)N(C)C(=O)CN(C)C1=O [PP1812]
Kd [1, 7]: 0.59 nM
HRAS /KRAS ([2]; ratio of KD value for HRAS wild-type protein to KD value for KRAS (SPR)): A (a compound having 10 or more and less than 20 is denoted as A)
NRAS /KRAS ([3]; ratio of KD value for GDP-bound NRAS wild-type protein to KD value for KRAS (SPR)): A (a compound having 10 or more and less than 20 is denoted as A)
IC50 [4]: 7.8 nM

CCO[C@@H]1C[C@H]2C(=O)NC3(CCC3)C(=O)N(C)[C@@H](C3CCCC3)C(=O)N(C)[C@H](C(=O)N(C)CC)CC(=O)N(C)[C@@H](CC3CCC3)C(=O)N[C@@H]([C@@H](C)CC)C(=O)N(C)CC(=O)N(C)[C@H]3C/C=C\CCN(C3=O)[C@@H](Cc3ccc(C(F)(F)F)cc3)C(=O)N(C)CC(=O)N[C@@H](CCc3ccc(Cl)c(Cl)c3)C(=O)N2C1 [PP2824]
Kd ([1]; 1:1 binding model): 0.44 nM
HRAS /KRAS [2, 5]: A (a compound having 10 or more and less than 20 is denoted as A)
NRAS /KRAS [3, 6]: A (a compound having 10 or more and less than 20 is denoted as A)
IC50 [4]: 23.4 nM
